Source: ChEMBL document CHEMBL1201862, “PubChem BioAssay data set” (2004)
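Tested at 5 concentrations; 48 h exposure; 96-well plates; endpoints linearly interpolated, else capped at highest concentration. Here, GI50 denotes the concentration required for 50% inhibition of growth.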 Calls of active or inactive are those of the source. Rule as the data show it: active = GI50 up to about 1.1 µM and inactive = higher.

Key:
Experiment in all cases: DTP human tumour cell line panel, 48 h
COLO 205 = test system: COLO 205
DU-145 = test system: DU-145
Hs-578T = test system: Hs-578T
KM12 = test system: KM12
MDA-MB-435 = test system: MDA-MB-435
MOLT-4 = test system: MOLT-4
NCI-H460 = test system: NCI-H460
SF-295 = test system: SF-295
SF-539 = test system: SF-539
SK-MEL-28 = test system: SK-MEL-28
SK-OV-3 = test system: SK-OV-3
SNB-19 = test system: SNB-19
SR = test system: SR
T47D = test system: T47D
U-251 = test system: U-251
NCI-H522 = test system: NCI-H522
PC-3 = test system: PC-3
SK-MEL-2 = test system: SK-MEL-2
SN12C = test system: SN12C
A498 = test system: A498

| Structure (SMILES) | GI50 (COLO 205) | GI50 (DU-145) | GI50 (Hs-578T) | GI50 (KM12) | GI50 (MDA-MB-435) | GI50 (MOLT-4) | GI50 (NCI-H460) | GI50 (SF-295) | GI50 (SF-539) | GI50 (SK-MEL-28) | GI50 (SK-OV-3) | GI50 (SNB-19) | GI50 (SR) | GI50 (T47D) | GI50 (U-251) | GI50 (NCI-H522) | GI50 (PC-3) | GI50 (SK-MEL-2) | GI50 (SN12C) | GI50 (A498) |
| --- | --- | --- | --- | --- | --- | --- | --- | --- | --- | --- | --- | --- | --- | --- | --- | --- | --- | --- | --- | --- |
| CSC1=C(C(=O)Nc2ccc(C)cc2)C(N)=NC1=O | > 100 µM (inactive) | > 100 µM (inactive) | > 100 µM (inactive) | > 100 µM (inactive) | > 100 µM (inactive) | > 100 µM (inactive) | > 100 µM (inactive) | > 100 µM (inactive) | > 100 µM (inactive) | > 100 µM (inactive) | > 100 µM (inactive) | > 100 µM (inactive) | 81.5 µM (inactive) | > 100 µM (inactive) | > 100 µM (inactive) | – | – | – | – | – |
| Cc1ccc(S(=O)(=O)Nn2c(C)cc3ccc(S(=O)(=O)Nc4ccccc4[N+](=O)[O-])cc3c2=O)cc1 | 18.6 µM (inactive) | > 100 µM (inactive) | 45.3 µM (inactive) | 18.2 µM (inactive) | > 100 µM (inactive) | > 100 µM (inactive) | 77.3 µM (inactive) | 17.6 µM (inactive) | > 100 µM (inactive) | > 100 µM (inactive) | > 100 µM (inactive) | > 100 µM (inactive) | > 100 µM (inactive) | – | > 100 µM (inactive) | > 100 µM (inactive) | 31.6 µM (inactive) | 39.4 µM (inactive) | 82.4 µM (inactive) | – |
| O=S(=O)(O)c1ccc(/N=N/c2ccc(/N=N/c3c(O)ccc4cc(S(=O)(=O)O)ccc34)cc2)cc1 | > 100 µM (inactive) | – | > 100 µM (inactive) | > 100 µM (inactive) | > 100 µM (inactive) | > 100 µM (inactive) | > 100 µM (inactive) | > 100 µM (inactive) | > 100 µM (inactive) | > 100 µM (inactive) | > 100 µM (inactive) | > 100 µM (inactive) | > 100 µM (inactive) | – | > 100 µM (inactive) | > 100 µM (inactive) | > 100 µM (inactive) | > 100 µM (inactive) | – | – |
| CN(CC(=O)O)Cc1c[nH]c2ccccc12 | > 100 µM (inactive) | > 100 µM (inactive) | > 100 µM (inactive) | > 100 µM (inactive) | > 100 µM (inactive) | > 100 µM (inactive) | > 100 µM (inactive) | > 100 µM (inactive) | > 100 µM (inactive) | > 100 µM (inactive) | > 100 µM (inactive) | > 100 µM (inactive) | > 100 µM (inactive) | – | > 100 µM (inactive) | > 100 µM (inactive) | > 100 µM (inactive) | > 100 µM (inactive) | > 100 µM (inactive) | > 100 µM (inactive) |
| Cc1nc(Nc2ccc(Cl)cc2)sc1C(=O)NNC(=O)C(=O)NN | 20.3 µM (inactive) | – | – | 18.3 µM (inactive) | – | 19.5 µM (inactive) | 19.7 µM (inactive) | 18.2 µM (inactive) | 26.1 µM (inactive) | 22.8 µM (inactive) | 22 µM (inactive) | 21.3 µM (inactive) | 27.5 µM (inactive) | – | 19.1 µM (inactive) | 17.2 µM (inactive) | – | 17.6 µM (inactive) | 16.1 µM (inactive) | 15.7 µM (inactive) |
| CSC1=Nc2ccccc2N=C(c2ccccc2)C1 | 21.2 µM (inactive) | – | – | 36 µM (inactive) | – | 27.9 µM (inactive) | 19.1 µM (inactive) | > 100 µM (inactive) | > 100 µM (inactive) | > 100 µM (inactive) | > 100 µM (inactive) | > 100 µM (inactive) | 24 µM (inactive) | – | > 100 µM (inactive) | 37.6 µM (inactive) | – | > 100 µM (inactive) | > 100 µM (inactive) | > 100 µM (inactive) |
| CC(=O)Nc1ccc(S(=O)(=O)Nc2nnc(S(N)(=O)=O)s2)cc1 | > 100 µM (inactive) | > 100 µM (inactive) | – | > 100 µM (inactive) | > 100 µM (inactive) | > 100 µM (inactive) | > 100 µM (inactive) | > 100 µM (inactive) | > 100 µM (inactive) | – | > 100 µM (inactive) | > 100 µM (inactive) | > 100 µM (inactive) | > 100 µM (inactive) | > 100 µM (inactive) | > 100 µM (inactive) | – | – | – | > 100 µM (inactive) |
| CC1=NN(C(=O)CC(=O)Nc2cccc(Cl)c2)C(=O)C1/N=N/c1ccc(S(N)(=O)=O)cc1 (stereo not given) | > 100 µM (inactive) | – | – | > 100 µM (inactive) | – | > 100 µM (inactive) | > 100 µM (inactive) | > 100 µM (inactive) | > 100 µM (inactive) | > 100 µM (inactive) | > 100 µM (inactive) | > 100 µM (inactive) | > 100 µM (inactive) | – | > 100 µM (inactive) | > 100 µM (inactive) | – | > 100 µM (inactive) | > 100 µM (inactive) | > 100 µM (inactive) |
| CC(=O)NC1C(OCc2ccccc2)OC(COC(=O)CCCCCNc2ccc([N+](=O)[O-])c3[nH]c4ccc(O)cc4c(=O)c23)C(O)C1OC(C)C(=O)N[C@@H](C)C(=O)N[C@H](CCC(=O)OCc1ccccc1)C(N)=O (stereo not given in full) | 1.55 µM (inactive) | – | – | 1.39 µM (inactive) | – | 1.87 µM (inactive) | 0.261 µM (active) | 3.08 µM (inactive) | 3.4 µM (inactive) | 2.69 µM (inactive) | 2.99 µM (inactive) | 3 µM (inactive) | 0.522 µM (active) | – | 2.45 µM (inactive) | 1.6 µM (inactive) | – | 1.95 µM (inactive) | 6.59 µM (inactive) | 2.1 µM (inactive) |
| COc1ccc(C(=O)CC(=O)C(=O)Nc2ccc(C)c(C)c2)cc1 | > 51.9 µM (inactive) | – | – | > 100 µM (inactive) | – | > 53.2 µM (inactive) | > 41.3 µM (inactive) | > 100 µM (inactive) | > 100 µM (inactive) | > 100 µM (inactive) | > 100 µM (inactive) | > 100 µM (inactive) | > 100 µM (inactive) | – | 63.4 µM (inactive) | 68.9 µM (inactive) | – | > 100 µM (inactive) | > 91.6 µM (inactive) | > 100 µM (inactive) |
| CC(=O)N(C(C)=O)n1c(Cc2ccc(Cl)cc2)n[nH]c1=O | > 100 µM (inactive) | > 100 µM (inactive) | > 100 µM (inactive) | > 100 µM (inactive) | > 100 µM (inactive) | > 100 µM (inactive) | > 100 µM (inactive) | > 64.4 µM (inactive) | > 100 µM (inactive) | > 100 µM (inactive) | > 100 µM (inactive) | > 100 µM (inactive) | > 100 µM (inactive) | – | > 100 µM (inactive) | > 100 µM (inactive) | > 100 µM (inactive) | > 100 µM (inactive) | > 100 µM (inactive) | > 100 µM (inactive) |
| O=c1c(Nc2ccccc2)cn(CCOc2ccccc2)c(=O)n1CCOc1ccccc1 | 69.3 µM (inactive) | 53 µM (inactive) | 17.6 µM (inactive) | > 100 µM (inactive) | > 100 µM (inactive) | > 100 µM (inactive) | > 100 µM (inactive) | 52.5 µM (inactive) | – | > 100 µM (inactive) | – | 31.5 µM (inactive) | > 100 µM (inactive) | – | > 100 µM (inactive) | 29.1 µM (inactive) | 34.8 µM (inactive) | – | > 100 µM (inactive) | > 100 µM (inactive) |
| COc1ccc2c(c1)[n+]([O-])c(-c1ccccc1Cl)c(N)[n+]2[O-] | 18.5 µM (inactive) | – | – | 67.1 µM (inactive) | – | 96.8 µM (inactive) | 54.5 µM (inactive) | > 100 µM (inactive) | > 100 µM (inactive) | > 100 µM (inactive) | > 100 µM (inactive) | > 100 µM (inactive) | > 100 µM (inactive) | – | 69.2 µM (inactive) | 16.9 µM (inactive) | – | > 100 µM (inactive) | > 100 µM (inactive) | > 100 µM (inactive) |
| COC1/C=C/C(C)C(C(C)C(OC)C(C)CCC(=O)C(C)C(CC(=O)O)OC)OC(=O)/C=C/C=C(\C)CC(OC)C(OC)C2=CC(=O)O[C@@H](C(C)C(OC)CC(OC)/C=C/C(C)C(O)C1)[C@H]2O (stereo not given in full) | 0.0399 µM (active) | 0.053 µM (active) | – | 0.0512 µM (active) | 0.0681 µM (active) | 0.106 µM (active) | 0.0311 µM (active) | 0.0968 µM (active) | – | 0.0212 µM (active) | 0.0879 µM (active) | 0.217 µM (active) | 0.0622 µM (active) | 0.135 µM (active) | 0.0416 µM (active) | – | 0.0382 µM (active) | 0.198 µM (active) | 0.406 µM (active) | 0.0815 µM (active) |
| COc1ccc(-c2c(C3=NCCN3)nnn2-c2ccccc2)cc1 | 98.9 µM (inactive) | – | – | > 100 µM (inactive) | – | > 100 µM (inactive) | > 100 µM (inactive) | > 100 µM (inactive) | > 100 µM (inactive) | > 100 µM (inactive) | > 100 µM (inactive) | > 100 µM (inactive) | 89.9 µM (inactive) | – | > 100 µM (inactive) | > 100 µM (inactive) | – | > 100 µM (inactive) | > 100 µM (inactive) | > 100 µM (inactive) |
| CC(C)(Oc1ccc(/C=C/C(=O)c2ccccc2)cc1)C(=O)Nc1c(Cl)cccc1Cl | > 10 µM (inactive) | – | – | 4.07 µM (inactive) | – | > 10 µM (inactive) | > 10 µM (inactive) | > 10 µM (inactive) | > 10 µM (inactive) | > 10 µM (inactive) | > 10 µM (inactive) | > 10 µM (inactive) | 3.48 µM (inactive) | – | 7.14 µM (inactive) | 4.67 µM (inactive) | – | > 10 µM (inactive) | > 10 µM (inactive) | 0.524 µM (active) |
